Where two headings read alike, the source gives them in different places.
Experiments:
[1] = target: T1, M4 muscarinic acetylcholine receptor (Homo sapiens, UniProt P08173); test: PDSP radioligand binding, M4; conditions: read-out: % inhibition at 10 µM
T1 sequence (P08173 1-479): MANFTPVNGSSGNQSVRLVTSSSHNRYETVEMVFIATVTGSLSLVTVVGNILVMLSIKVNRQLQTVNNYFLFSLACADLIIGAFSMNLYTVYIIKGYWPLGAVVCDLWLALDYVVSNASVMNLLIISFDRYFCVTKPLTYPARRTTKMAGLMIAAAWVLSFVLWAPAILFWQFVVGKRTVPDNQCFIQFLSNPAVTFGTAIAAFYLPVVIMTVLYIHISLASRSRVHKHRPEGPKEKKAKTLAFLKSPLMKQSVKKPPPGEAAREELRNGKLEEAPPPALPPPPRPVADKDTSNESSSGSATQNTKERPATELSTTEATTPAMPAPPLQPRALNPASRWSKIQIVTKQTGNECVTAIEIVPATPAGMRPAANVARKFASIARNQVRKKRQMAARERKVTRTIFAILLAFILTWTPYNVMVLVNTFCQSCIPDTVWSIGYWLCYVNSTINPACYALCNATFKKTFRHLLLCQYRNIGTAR

[2] = target: T2, hA2AAR (Homo sapiens, UniProt P29274); design: method as in earlier work; conditions: ref 1-4 of Table S1 (Tosh et al. 2009, 2012); cited from earlier work
[3] = target: T3, hA1AR (Homo sapiens, UniProt P30542); conditions: ref 1-4 of Table S1 (Tosh et al. 2009, 2012); cited from earlier work
T3 sequence (P30542 1-326): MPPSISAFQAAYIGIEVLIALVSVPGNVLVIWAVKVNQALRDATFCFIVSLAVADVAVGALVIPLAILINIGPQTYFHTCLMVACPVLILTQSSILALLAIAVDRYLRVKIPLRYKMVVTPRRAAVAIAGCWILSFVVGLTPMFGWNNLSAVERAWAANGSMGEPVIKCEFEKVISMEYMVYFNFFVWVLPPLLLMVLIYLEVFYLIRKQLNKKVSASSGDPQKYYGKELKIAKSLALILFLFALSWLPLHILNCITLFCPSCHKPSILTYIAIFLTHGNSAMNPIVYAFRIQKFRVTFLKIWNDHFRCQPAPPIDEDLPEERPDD

[4] = target: H2 histaminergic receptor (Homo sapiens, UniProt P25021); test: PDSP radioligand binding, H2; conditions: read-out: % inhibition at 10 µM
[5] = target: 5HT2B receptor (Homo sapiens, UniProt P41595); test: 5HT2B functional assay, antagonist mode (inhibition of agonist activity); assay type: cell-based; conditions: for % inhibition as antagonist at 5HT2B: 10 µM; for IC50: antagonist mode
[6] = target: 5HT2C receptor (Homo sapiens, UniProt P28335); test: 5HT2C functional assay, antagonist mode (inhibition of agonist activity); assay type: cell-based; conditions: 10 µM
[7] = target: T4, KXα3β4 receptor 2 (Rattus norvegicus, UniProt P04757+P12392); test: 86Rb+ efflux, nicotinic acetylcholine receptor antagonist activity, KXα3β4 receptor 2 cells; assay type: cell-based; conditions: cells expressing KXα3β4 receptor 2
T4 construct: expressed in transfected cells; host or cells: KXα3β4 receptor 2 (KXα3β4R2) cells

[8] = target: T5, KXα4β2 receptor 2 (Rattus norvegicus, UniProt P09483+P12390); test: [3H]epibatidine binding in cells expressing KXα4β2 receptor 2
T5 construct: expressed in transfected cells

[9] = target: T6, YXα3β4H1 receptor (Homo sapiens, UniProt P30926+P32297); test: 86Rb+ efflux, nicotinic acetylcholine receptor antagonist activity, YXα3β4H1 cells; assay type: cell-based; conditions: cells expressing YXα3β4H1 receptor
T6 construct: expressed in transfected cells

[10] = target: T2, hA2AAR; test: Radioligand binding at hA2AAR; conditions: compounds 8 and 9, measured for this study
[11] = target: T3, hA1AR; test: Radioligand binding at hA1AR; conditions: compounds 8 and 9, measured for this study
[12] = target: hA3AR (Homo sapiens, UniProt P0DMS8); test: Radioligand binding at hA3AR
[13] = target: T7, α2C adrenergic receptor (Homo sapiens, UniProt P18825); test: α2C adrenergic receptor functional assay (antagonist); assay type: cell-based
T7 sequence (P18825 1-462): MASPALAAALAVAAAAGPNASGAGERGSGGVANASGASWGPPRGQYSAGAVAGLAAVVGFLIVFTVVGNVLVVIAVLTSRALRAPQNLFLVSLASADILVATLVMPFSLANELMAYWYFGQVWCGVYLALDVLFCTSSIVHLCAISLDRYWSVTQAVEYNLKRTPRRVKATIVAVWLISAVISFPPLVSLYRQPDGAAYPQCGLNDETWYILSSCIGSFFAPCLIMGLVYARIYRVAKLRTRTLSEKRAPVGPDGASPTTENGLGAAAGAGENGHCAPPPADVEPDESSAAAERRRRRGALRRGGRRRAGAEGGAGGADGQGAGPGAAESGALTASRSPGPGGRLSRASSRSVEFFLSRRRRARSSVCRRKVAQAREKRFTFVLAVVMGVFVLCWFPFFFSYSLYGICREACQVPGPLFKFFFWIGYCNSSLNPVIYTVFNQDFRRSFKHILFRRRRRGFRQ

[14] = read-out: IC50 at 5HT2B receptors (Figure S2)

CNC(=O)[C@@]12C[C@@H]1[C@@H](n1cnc3c(NCc4cccc(Cl)c4)nc(C#Cc4ccc(F)c(F)c4)nc31)[C@H](O)[C@@H]2O [Compound 1]
inhibition at 10 µM [1]: 20%
hA2AAR % inhibition [2]: 41%±10%
hA1AR % inhibition [3]: < 10%
inhibition at 10 µM [4]: 34%

CNC(=O)[C@@]12C[C@@H]1[C@@H](n1cnc3c(NCc4cccc(Cl)c4)nc(C#Cc4ccccc4Cl)nc31)[C@H](O)[C@@H]2O [Compound 3]
inhibition at 10 µM ([1]; single concentration 10 µM): 8%
hA2AAR % inhibition [2]: 52%±12%
hA1AR % inhibition [3]: 19%±2%

O[C@@H]1[C@H](O)[C@@H]2C[C@@H]2[C@H]1n1cnc2c(NCc3cccc(Cl)c3)nc(C#Cc3ccc(F)c(F)c3)nc21 [Compound 6]
inhibition at 10 µM ([1]; single concentration 10 µM): 32%
hA1AR % inhibition [3]: 29%±1%
inhibition at 10 µM ([4]; single concentration 10 µM): 0%

CNC(=O)[C@@]12C[C@@H]1[C@@H](n1cnc3c(NCc4cccc(Cl)c4)nc(Cl)nc31)[C@H](O)[C@@H]2O [Compound 4]
% inhibition as antagonist at 5HT2B [5]: 60%
IC50 ([5]; read-out: IC50, inhibition of agonist activity at 5HT2B): 0.887 µM
IC50 [5, 14]: 3.26 µM
inhibition at 10 µM ([1]; single concentration 10 µM): 30%
% inhibition as antagonist at 5HT2C [6]: 94%

O[C@@H]1[C@H](O)[C@@H]2C[C@@H]2[C@H]1n1cnc2c(NC(C3CC3)C3CC3)nc(Cl)nc21 [Compound 10]
inhibition at 10 µM ([1]; single concentration 10 µM): 7%
IC50 [7]: 21.2 µM
inhibition at 10 µM ([4]; single concentration 10 µM): 13%
inhibition of [3H]epibatidine binding [8]: no inhibition
IC50 [9]: 30.3 µM

Clc1cccc(CNc2nc(Cl)nc3[nH]cnc23)c1 [Compound 9]
% inhibition as antagonist at 5HT2B [5]: 26%
IC50 [5, 14]: 0.89 µM
hA2AAR % inhibition [10]: 37%±1%
hA1AR % inhibition [11]: 45%±3%
Ki [12]: 0.165 µM
IC50 [13]: 2.9 µM
inhibition at 10 µM ([1]; single concentration 10 µM): 0%
% inhibition as antagonist at 5HT2C [6]: 65%

CNC(=O)[C@@]12C[C@@H]1[C@@H](n1cnc3c(NCc4cccc(Cl)c4)nc(C#Cc4ccc(F)cc4)nc31)[C@H](O)[C@@H]2O [Compound 2]
inhibition at 10 µM ([1]; single concentration 10 µM): 8%
hA2AAR % inhibition [2]: 42%±2%
hA1AR % inhibition [3]: 20%±6%

Fc1ccc(C#Cc2nc(NCc3cccc(Cl)c3)c3nc[nH]c3n2)cc1F [Compound 8]
hA2AAR % inhibition [10]: < 10%
hA1AR % inhibition [11]: < 10%
Ki [12]: 0.12 µM
inhibition at 10 µM ([1]; single concentration 10 µM): 4%

CNC(=O)[C@@]12C[C@@H]1[C@@H](n1cnc3c(NC)nc(C#Cc4ccc(F)c(F)c4)nc31)[C@H](O)[C@@H]2O [Compound 5]
inhibition at 10 µM ([1]; single concentration 10 µM): 0%
hA2AAR % inhibition [2]: < 10%
hA1AR % inhibition [3]: < 10%

O[C@@H]1[C@H](O)[C@@H]2C[C@@H]2[C@H]1n1cnc2c(NCc3cccc(Cl)c3)ncnc21 [Compound 7]
inhibition at 10 µM ([1]; single concentration 10 µM): 4%

— publication PMC4032265 (PLoS ONE, 2014)
